The subject of one data set is rodent. The settings on record: cited from earlier work.
The subject of data set [1] is L5178Y mouse lymphoma cells. The settings on record: cited from earlier work.
The subject of data set [2] is human lymphoblastoid TK6 cells, thymidine kinase gene.
Data set [3] concerns TA1538, TA100, TA98, TA97, TA1535. Particulars: ref [18]-[40], Table 2, cited from earlier work.
In data set [4] the test system is human lymphoblastoid TK6 cells, thymidine kinase gene. As to the kind of experiment: TK gene mutation assay (TK6 assay, OECD TG490). The settings on record: for MF: graph sheet Short-S9.

Consider `CNc1ccc(N(CCO)CCO)cc1[N+](=O)[O-]` [HC blue No. 1, reference compound], for which, in the data set on rodent (ref [84]), the carcinogenicity classification result is “carcinogen”. Further, in data set [1] (+S9, ref [68]), the “mutagenicity in MLA (+S9)” value is recorded as “positive with weak response”. Moreover, the “MLA (−S9)” value in data set [1] (substance with high purity, −S9, ref [27], [85]) is “negative”.
For `IC(I)I` [Iodoform], the “MF at high-dose levels” value in data set [2] is recorded as “dose-dependent increase in MF”. Also, in data set [2], the “TK6 assay overall judgment” value is reported as “negative”. Moreover, the “TK6 assay result (mutant frequency increase, judgment)” value in data set [2] is listed as “Negative”. For the same compound, in data set [2], the “TK mutation assay, Long term” value is recorded as “Neg”. Further, in data set [2], the “TK mutation assay, With S9” value is listed as “Neg”. For the same compound, the “TK mutation assay, Without S9” value in data set [2] was “Neg”. Also, the “Carcinogenicity Studies” value in the data set on rodent (rodent, ref [20]-[41], Table 2) is recorded as “Neg”. In addition, in data set [3] (with S9), the “Bacterial reverse mutation assay, With S9” value was “Pos”. Besides, the “Bacterial reverse mutation assay, Without S9” value in data set [3] (without S9) is “Pos”. Also, the MF in data set [4] (6.25 μg/mL, -S9 mix) is on record as 2.7; in data set [4] (50.0 μg/mL, -S9 mix), 3.0; in data set [4] (100.0 μg/mL, -S9 mix), 4.5; in data set [4] (200.0 μg/mL, -S9 mix), 3.2. The “%SG” value in data set [4] (6.25 μg/mL, short treatment, -S9 mix) is listed as 88.0%; in data set [4] (50.0 μg/mL, short treatment, -S9 mix), 48.2%; in data set [4] (100.0 μg/mL, short treatment, -S9 mix), 69.7%; in data set [4] (200.0 μg/mL, short treatment, -S9 mix) it was 80.4%; in data set [4] (24 h treatment -S9 mix, dose 10.00 μg/mL) it was 71.6%; in data set [4] (24 h treatment -S9 mix, dose 20.00 μg/mL) it was 71.8%. For the same compound, the “%SG” value was found to be 87.1% in data set [4] (24 h treatment -S9 mix, dose 30.00 μg/mL); 100.0% in data set [4] (24 h treatment -S9 mix, dose 40.0 μg/mL); 100.0% in data set [4] (24 h treatment -S9 mix, dose 50.0 μg/mL); 79.6% in data set [4] (24 h treatment -S9 mix, dose 60.0 μg/mL); 85.6% in data set [4] (24 h treatment -S9 mix, dose 70.0 μg/mL); 65.1% in data set [4] (Short treatment +S9 mix, dose 25 μg/mL). Moreover, the “%SG” value came to 57.3% in data set [4] (Short treatment +S9 mix, dose 50 μg/mL); 65.1% in data set [4] (Short treatment +S9 mix, dose 100 μg/mL); 61.0% in data set [4] (Short treatment +S9 mix, dose 200 μg/mL).

The record behind these values is paper PMC7937321 (Genes and Environment, 2021).
